Source: patent US8841077B2, “Biomarkers for amyotrophic lateral sclerosis and methods using the same” (Massachusetts General Hospital, priority 2006, dated 2014)

Columns and labels:
[1] = Caffeine and paraxanthine in plasma of ALS patients vs peripheral neuropathy or myopathy patients (Examples 6, 7; Tables 12, 13); format: in vivo, human
Protocol: All research participants provided informed consent. A board-certified neurologist reviewed and confirmed diagnosis for all participants. Data on gender, age, weight, and medications was collected. For participants with ALS, date and site of symptom onset, date of diagnosis, and family history of ALS was recorded.

[2] = Metabolomics demographic study of plasma from 270 healthy volunteers of various ages (Table 11); format: in vivo, human; conditions: normal adults
[3] = Caffeine and caffeine metabolites in plasma of ALS patients vs healthy control subjects (Examples 4, 5; Tables 9, 10)
Protocol: Metabolomic analysis of two independent ALS studies was carried out to assess the changes of metabolite levels in plasma from ALS patients relative to healthy control subjects. Thirty-one healthy control volunteers and 31 participants with ALS enrolled in Study 1. Study 2 was comprised of ninety-nine participants with ALS and 94 healthy volunteers. All research participants provided informed consent. A board-certified neurologist reviewed and confirmed diagnosis for all participants. Data on gender, age, weight, and medications was collected. For participants with ALS, date and site of symptom onset, date of diagnosis, and family history of ALS was recorded. Healthy control subjects were defined by the absence of a known neurological disorder.
A measure of caffeine clearance rate is reflected in the ratio of caffeine metabolites to caffeine.

Row | Paraxanthine/Caffeine Ratio ([1]; ALS) | Paraxanthine/Caffeine Ratio ([1]; Myopathy) | Paraxanthine/Caffeine Ratio ([1]; PN) | Paraxanthine/Caffeine (P/C) Ratio ([2]; age 25-35) | Paraxanthine/Caffeine (P/C) Ratio ([2]; age 36-50) | Paraxanthine/Caffeine (P/C) Ratio ([2]; age 51-65) | Theophylline/Caffeine (T/C) Ratio ([3]; ALS subjects) | Theophylline/Caffeine (T/C) Ratio ([3]; Control subjects) | SMILES
1 | 0.7389 | 0.4900 | 0.0294 | 1.1467 | 1.0358 | 0.7105 |  |  | Cn1c(=O)[nH]c2ncn(C)c2c1=O [Paraxanthine, 1-7-dimethylxanthine]
2 |  |  |  |  |  |  | 1.3684 | 0.8857 | Cn1c(=O)c2[nH]cnc2n(C)c1=O [Theophylline]
